# In paper PMC9232612, “A phase 1b randomised controlled trial of a glucagon-like peptide-1 and glucagon receptor dual agonist IBI362 (LY3305677) in Chinese patients with type 2 diabetes” (Nature Communications, 2022):
# “And” between values parts separate entries of the source, which are not always exact repeats. Equal entries are not always repeated.
# Legend:
# Assay type in all cases: in vivo, human
# [1] = tested on: Chinese patients with T2D; assay: Change from baseline in heart rate, standard 12-lead electrocardiogram; settings: 1.5 mg once weekly
# Source text: (§1) Primary outcomes of the study were the safety and tolerability of IBI362. Safety assessment included adverse events, physical examinations, laboratory tests (including lipase, amylase and calcitonin level measures), vital signs and 12-lead electrocardiogram. Adverse events were categorized according to the Medical Dictionary for Regulatory Activities system organ classes (SOCs) and preferred terms. Treatment-emergent adverse events (TEAEs) were monitored from the time of informed consent to the safety follow-up period. The severity of TEAEs (mild, moderate or severe) and the association between an event and the study drug were assessed by investigators based on pre-specified criteria.
# CFB in heart rate (beats/min),
# Fig. S1: Change from baseline in heart rate over time.
# Data are from standard 12-lead electrocardiogram, measured at 1 hour before each dose in the morning from week 0 to week 11, and 168 hours after the last dose (week 12). Data are plotted as means +/- SD. CFB = change from baseline; SD = standard deviation.Source data are provided as […]
# (1 picture or pasted object on this page, not shown here)
# [2] = tested on: Chinese patients with T2D; assay: Alanine aminotransferase and aspartate aminotransferase levels; settings: 1.5 mg once weekly
# Source text: as §1
# CFB in ALT (U/L), mean (SD)
# CFB in AST (U/L), mean (SD)
# Fig. S2: Change from baseline in ALT and AST levels over time.
# a. CFB in ALT levels over time. b. CFB in AST levels over time. Data are plotted as means +/- SD.
# ALT = alanine aminotransferase; AST = aspartate aminotransferase; CFB = change from baseline;
# SD = standard deviation. Source data are provided as a Source Data file. […]
# [3] = tested on: Chinese patients with T2D; assay: Glycated haemoglobin A1c (HbA1c); settings: 1.5 mg once weekly; for HbA1c at week 12, single patients: each line a single patient
# Protocol: (§2) HbA1c (2200101, Bio-Rad, USA), blood glucose (05168791190, Roche Diagnostics, Germany), insulin (12017547122, Roche Diagnostics, Germany), C peptide (03184897190, Roche Diagnostics, Germany), total GLP-1 (GLP-1 [7–36] amide and its metabolite, GLP-1 [9–36] amide, 10-1278-01, Mercodia AB, Sweden) and OXM (AL-139, AnshLabs, USA) tests were performed according to the manufactures’ instruction manuals in a central laboratory (KingMed Diagnostics, Guangzhou, China). HbA1c was measured using a Bio-rad D-100 Haemoglobin Testing System (Bio-rad). Blood glucose was measured using a Roche Cobas c702 analyser (Roche Diagnostics). Insulin and C peptide were measured using a Roche […] analyser (Roche Diagnostics). GLP-1 and OXM were measured using a Tecan Infinite M Plex microplate reader (TECAN).
# (§3) Standard non-compartmental pharmacokinetics methods were used to analyze IBI362 plasma concentration data using Pkanalix 2020R1 (Lixoft, Antony, France). Secondary efficacy outcomes included change from baseline to week 12 in HbA1c, fasting plasma glucose (FPG), fasting insulin levels, change from baseline to week 12 in post-mixed-meal tolerance test (post-MTT) glucose, insulin, C peptide, GLP-1 and OXM levels, as well as seven-point self-measured blood glucose (SMBG) profile.
# (§4) The analyses for change from baseline in HbA1c, FPG, post-MTT glucose AUC0–4 h and body weight were performed using the mixed-effect model for repeated measures (MMRM) with least-squares means and standard error provided. The MMRM included the corresponding baseline value, treatment, visit and treatment-by-visit as fixed effects and patient as a random effect. Mean change or mean percent change from baseline were analysed using a restricted maximum likelihood (REML)‐based repeated measures approach in combination with the Newton Raphson Algorithm. The fix effect of visit was fitted as a repeated effect and an unstructured covariance matrix was used. In case of non-converge, matrix like Variance Components and Compound Symmetry will be tested in a subsequent order until model‐convergence is achieved. The Kenward-Roger degree of freedom was used in estimating fixed effects. No missing data imputation was conducted. For HbA1c, FPG and body weight, point estimate of treatment difference versus placebo and 90% CI were provided for each IBI362 dose group and the dulaglutide group, with nominal p values.
# [4] = tested on: Chinese patients with T2D; assay: Fasting plasma glucose (FPG); settings: 1.5 mg once weekly, MMRM
# Protocol: as §2, §3, §4
# [5] = tested on: Chinese patients with T2D; assay: Blood pressure (systolic, diastolic); settings: Dulaglutide group; mean
# Source text: as §1
# Fig. S7: Change from baseline in waist circumference, BMI and blood pressure at week 12. a. CFB in waist circumference at week 12. b. CFB in BMI at week 12. c. CFB in blood pressure at week 12. Data are plotted as means +/- SD. a. IBI362 3.0 mg n = 7; IBI362 4.5 mg n = 5; IBI362 6.0 mg n = 8; Pooled placebo n = 11; Dulaglutide n = 6. b. IBI362 3.0 mg n = 7; IBI362 4.5 mg n = 5; […]
# mg n = 6; IBI362 6.0 mg n = 8; Pooled placebo n = 11; Dulaglutide n = 6. BMI = body-mass index; CFB = change from baseline; DBP = diastolic blood pressure; SBP = systolic blood pressure; SD = standard deviation. Source data are provided as a Source Data file.
# CFB in BMI at week 12 (kg/m2), […]
# at week 12 (mm Hg), mean (SD)
# CFB in waist circumference at week 12 (cm), mean (SD) […]
substance,measurement,setting,value
"Dulaglutide: open-label active reference, subcutaneously once weekly at a fixed dose of 1.5 mg [reference compound]","heart rate, mean change from baseline (bound)",[1],< 10 beats per minute
same,"Change from baseline in ALT, mean",[2]; week 4,-3.70 U/L
same,"Change from baseline in AST, mean",[2]; week 4,0.83 U/L
same,"Change from baseline in ALT, mean",[2]; week 8,-4.33 U/L
same,"Change from baseline in AST, mean",[2]; week 8,1.53 U/L
same,"Change from baseline in ALT, mean",[2]; week 12,-6.92 U/L
same,"Change from baseline in AST, mean",[2]; week 12,1.58 U/L
same,Percent of patients with change from baseline to week 12 in HbA1c <1.0%,[3]; n=6,16.7%
same,Percent of patients with change from baseline to week 12 in HbA1c ≥1.0% and <1.5%,[3]; n=6,50.0%
same,Percent of patients with change from baseline to week 12 in HbA1c ≥1.5% and <2.0%,[3]; n=6,0.0%
same,Percent of patients with change from baseline to week 12 in HbA1c ≥2.0%,[3]; n=6,33.3%
same,"HbA1c at week 12, single patients",[3],6.4% and 6.6% and 6.5% and 7.2% and 6.0%
same,"HbA1c at week 12, single patients",[3]; listed as dulaglutide,5.5%
same,"Change from baseline in HbA1c, LS mean","[3]; week 4, n=6, MMRM",-1.03%
same,"Change from baseline in HbA1c, LS mean","[3]; week 8, n=6, MMRM",-1.72%
same,patients achieving ≥1.5% reductions in HbA1c from baseline,"[3]; week 12, n=6",33.3%
same,"Change from baseline in HbA1c, LS mean (SE)","[3]; week 12, n=6, MMRM",-1.98%
same,"HbA1c: ETD versus placebo, LS mean (90% CI)","[3]; week 12, MMRM",−1.11%
same,"Change from baseline in fasting plasma glucose, LS mean","[4]; week 4, n=6",-3.19 mmol/L
same,"Change from baseline in fasting plasma glucose, LS mean","[4]; week 8, n=6",-3.36 mmol/L
same,"Change from baseline in fasting plasma glucose, LS mean (SE)","[4]; week 12, n=6",-3.85 mmol/L
same,"Fasting plasma glucose: ETD versus placebo, LS mean (90% CI)",[4]; week 12,-1.32 mmol/L
same,"Change from baseline to week 12 in blood pressure, diastolic",[5],4.0 mm Hg
same,"Change from baseline to week 12 in blood pressure, systolic",[5],5.8 mm Hg
